Where a SMILES comes first, the peptide text is derived from it.
target: purified HLA-DRB1*0101 (Homo sapiens, UniProt P01903+P01911, A100R/D57E/F55L/F60I/F76Y/I96L/L162R/M171V/P40L/Q125E/R42F/V115G/Y59C); assay: biochemical; assay type: binding

**Q.** How did the IC50 turn out when `CC[C@H](C)[C@H](NC(=O)[C@H](Cc1ccc(O)cc1)NC(=O)[C@H](CC(=O)O)NC(=O)[C@H](CCCCN)NC(=O)[C@H](CCCNC(=N)N)NC(=O)[C@@H](N)CC(C)C)C(=O)N[C@@H](CCCCN)C(=O)N[C@@H](CCCNC(=N)N)C(=O)N[C@@H](CCC(N)=O)C(=O)NCC(=O)N[C@@H](CO)C(=O)N[C@H](C(=O)N1CCC[C@H]1C(=O)N[C@@H](CC(C)C)C(=O)N[C@@H](C)C(=O)O)[C@@H](C)O` [LCMV GPC421-435] was run?
**A.** 4.8 nM

**Q.** How did the IC50 turn out when `CC[C@H](C)[C@H](NC(=O)[C@H](Cc1ccc(O)cc1)NC(=O)[C@@H](NC(=O)[C@H](CC(=O)O)NC(=O)[C@H](CCCNC(=N)N)NC(=O)[C@@H](NC(=O)[C@H](CCCNC(=N)N)NC(=O)[C@H](CCC(N)=O)NC(=O)[C@H](CO)NC(=O)[C@H](CC(C)C)NC(=O)[C@H](CC(C)C)NC(=O)CNC(=O)[C@H](CC(C)C)NC(=O)[C@@H](N)Cc1ccc(O)cc1)[C@@H](C)O)[C@@H](C)CC)C(=O)N[C@@H](CO)C(=O)O` [LASV GPC241-255] was run?
**A.** 0.29 nM

**Q.** With `CC[C@H](C)[C@H](NC(=O)[C@H](CC(=O)O)NC(=O)[C@H](CC(C)C)NC(=O)[C@@H](NC(=O)[C@@H](N)CCCNC(=N)N)C(C)C)C(=O)N[C@@H](CC(C)C)C(=O)N[C@H](C(=O)N[C@@H](C)C(=O)N[C@@H](CCCNC(=N)N)C(=O)N[C@@H](CCCNC(=N)N)C(=O)N[C@@H](CC(C)C)C(=O)N[C@@H](CC(C)C)C(=O)N[C@@H](CC(C)C)C(=O)N[C@@H](CCCCN)C(=O)N[C@@H](CCCCN)C(=O)O)C(C)C` [GTOV L391-405] (H-RVLDILVARRLLLKK-OH) as the compound, how does the IC50 read?
**A.** 0.19 nM

**Q.** For `CC[C@H](C)[C@H](NC(=O)[C@@H]1CCCN1C(=O)[C@H](CO)NC(=O)[C@@H]1CCCN1)C(=O)NCC(=O)N[C@@H](Cc1ccc(O)cc1)C(=O)N[C@@H](CC(C)C)C(=O)NCC(=O)N[C@@H](CC(C)C)C(=O)N[C@@H](CC(C)C)C(=O)N[C@@H](CO)C(=O)N[C@@H](CCC(N)=O)C(=O)N[C@@H](CCCNC(=N)N)C(=O)N[C@H](C(=O)N[C@@H](CCCNC(=N)N)C(=O)O)[C@@H](C)O` [LASV GPC236-250], which IC50 is on record?
**A.** 0.14 nM

**Q.** Which IC50 does the source give for `CC(C)C[C@H](NC(=O)CNC(=O)[C@H](CS)NC(=O)[C@@H](N)CO)C(=O)N[C@@H](Cc1ccc(O)cc1)C(=O)N[C@@H](CCCCN)C(=O)N[C@@H](CCC(N)=O)C(=O)N1CCC[C@H]1C(=O)NCC(=O)N[C@H](C(=O)N1CCC[C@H]1C(=O)N[C@H](C(=O)N[C@@H](CCCNC(=N)N)C(=O)N[C@@H](Cc1c[nH]c2ccccc12)C(=O)N[C@@H](CCCCN)C(=O)O)C(C)C)C(C)C` [LASV GPC476-490] here?
**A.** 1.5 nM

**Q.** For `CC[C@H](C)[C@H](NC(=O)[C@@H](NC(=O)[C@H](CC(C)C)NC(=O)[C@H](C)NC(=O)[C@@H]1CCCN1C(=O)[C@H](CCSC)NC(=O)[C@H](CO)NC(=O)CNC(=O)[C@H](Cc1ccccc1)NC(=O)[C@H](CCC(N)=O)NC(=O)[C@H](CC(N)=O)NC(=O)[C@H](CC(N)=O)NC(=O)[C@H](CC(C)C)NC(=O)[C@@H](N)CCCCN)[C@@H](C)O)C(=O)N[C@@H](C)C(=O)O` [GTOV NP166-180], which IC50 is on record?
**A.** 0.12 nM

**Q.** `CC[C@H](C)[C@H](NC(=O)[C@H](CC(C)C)NC(=O)[C@H](Cc1ccc(O)cc1)NC(=O)[C@@H](N)CC(=O)O)C(=O)N[C@@H](CC(C)C)C(=O)N[C@@H](CCCCN)C(=O)N[C@@H](CC(N)=O)C(=O)N[C@@H](CC(C)C)C(=O)N[C@H](C(=O)NCC(=O)N[C@@H](CC(C)C)C(=O)N[C@H](C(=O)N[C@@H](CO)C(=O)N[C@@H](C)C(=O)NCC(=O)O)C(C)C)[C@@H](C)O` [MACV L866-880] was tested. Which IC50 did it give?
**A.** 0.21 nM

**Q.** `CC(C)[C@H](NC(=O)[C@H](C)NC(=O)[C@H](CCCCN)NC(=O)[C@@H]1CCCN1C(=O)[C@H](CCCCN)NC(=O)[C@@H](NC(=O)[C@H](C)NC(=O)[C@H](Cc1c[nH]c2ccccc12)NC(=O)[C@H](Cc1ccccc1)NC(=O)[C@H](Cc1ccccc1)NC(=O)[C@H](CC(N)=O)NC(=O)[C@H](CCCCN)NC(=O)[C@@H](N)CC(N)=O)C(C)C)C(=O)N[C@@H](CCCNC(=N)N)C(=O)N[C@@H](CCC(N)=O)C(=O)O` [JUNV L1711-1725] was tested. Which IC50 did it give?
**A.** 0.06 nM

**Q.** With `CSCC[C@H](NC(=O)[C@H](CCC(N)=O)NC(=O)[C@@H](NC(=O)[C@H](Cc1c[nH]c2ccccc12)NC(=O)[C@@H](N)CCCCN)C(C)C)C(=O)N[C@@H](CS)C(=O)N[C@@H](CO)C(=O)N[C@@H](CCCNC(=N)N)C(=O)N[C@H](C(=O)N[C@@H](CC(C)C)C(=O)N[C@@H](CCCCN)C(=O)N[C@@H](CC(N)=O)C(=O)N[C@@H](CO)C(=O)N[C@@H](Cc1c[nH]cn1)C(=O)N[C@@H](CCC(N)=O)C(=O)O)[C@@H](C)O` [JUNV L411-425] as the compound, how does the IC50 read?
**A.** 1.1 nM

**Q.** For `CC[C@H](C)[C@H](N)C(=O)N1CCC[C@H]1C(=O)N[C@H](C(=O)N[C@@H](CCC(N)=O)C(=O)N[C@@H](CC(C)C)C(=O)N[C@@H](CC(C)C)C(=O)N1CCC[C@H]1C(=O)N[C@@H](CC(N)=O)C(=O)N[C@H](C(=O)N[C@@H](CC(C)C)C(=O)N[C@H](C(=O)N[C@@H](Cc1ccccc1)C(=O)N[C@@H](CCC(N)=O)C(=O)N[C@@H](C)C(=O)N[C@@H](CCCCN)C(=O)O)C(C)C)[C@@H](C)O)[C@@H](C)CC` [GTOV NP541-555] (H-IPIQLLPNTLVFQAK-OH), which IC50 is on record?
**A.** 0.25 nM

**Q.** Which IC50 does the source give for `CC[C@H](C)[C@H](NC(=O)[C@H](Cc1c[nH]cn1)NC(=O)[C@H](CCCNC(=N)N)NC(=O)[C@H](Cc1c[nH]cn1)NC(=O)[C@@H](NC(=O)[C@@H]1CCCN1C(=O)[C@H](Cc1ccccc1)NC(=O)CNC(=O)[C@@H](NC(=O)[C@H](CC(C)C)NC(=O)[C@H](Cc1c[nH]cn1)NC(=O)[C@H](CC(C)C)NC(=O)[C@@H](N)Cc1ccccc1)C(C)C)[C@@H](C)O)C(=O)N[C@@H](CCCNC(=N)N)C(=O)NCC(=O)O` [SABV GPC441-455] (H-FLHLVGFPTHRHIRG-OH) here?
**A.** 0.09 nM

**Q.** Which IC50 does the source give for `CC(C)C[C@H](NC(=O)CNC(=O)[C@H](CC(C)C)NC(=O)[C@H](CO)NC(=O)[C@@H](NC(=O)[C@H](CC(C)C)NC(=O)[C@H](C)NC(=O)[C@H](CCC(N)=O)NC(=O)[C@@H](NC(=O)[C@@H](NC(=O)[C@H](CC(N)=O)NC(=O)[C@@H](N)CC(N)=O)C(C)C)C(C)C)[C@@H](C)O)C(=O)N[C@@H](CC(C)C)C(=O)N[C@@H](Cc1ccc(O)cc1)C(=O)N[C@H](C(=O)O)[C@@H](C)O` [GTOV NP191-205] here?
**A.** 0.29 nM

**Q.** How did the IC50 turn out when `CC[C@H](C)[C@H](NC(=O)[C@H](CC(C)C)NC(=O)[C@H](CCCNC(=N)N)NC(=O)[C@H](Cc1c[nH]cn1)NC(=O)[C@H](Cc1ccc(O)cc1)NC(=O)[C@H](CCC(=O)O)NC(=O)[C@H](CCC(N)=O)NC(=O)[C@@H](N)CC(=O)O)C(=O)N[C@@H](Cc1c[nH]cn1)C(=O)N[C@@H](CO)C(=O)N[C@@H](CC(C)C)C(=O)N[C@@H](CO)C(=O)N[C@@H](CCCCN)C(=O)N[C@H](C(=O)N[C@@H](CO)C(=O)O)[C@@H](C)O` [GTOV L181-195] (H-DQEYHRLIHSLSKTS-OH) was run?
**A.** 0.34 nM

**Q.** For `CC[C@H](C)[C@H](NC(=O)[C@H](CC(C)C)NC(=O)CNC(=O)[C@H](CCC(=O)O)NC(=O)[C@@H]1CCCN1C(=O)[C@H](CC(N)=O)NC(=O)[C@@H](NC(=O)[C@H](CCCCN)NC(=O)[C@H](CCC(N)=O)NC(=O)[C@H](Cc1ccccc1)NC(=O)[C@H](CC(N)=O)NC(=O)[C@@H](N)CCCNC(=N)N)C(C)C)C(=O)N[C@@H](CCCCN)C(=O)N[C@@H](CCC(=O)O)C(=O)N[C@@H](Cc1ccccc1)C(=O)O` [LCMV L256-270] (H-RNFQKVNPEGLIKEF-OH), which IC50 is on record?
**A.** 5.6 nM

**Q.** `CC[C@H](C)[C@H](NC(=O)[C@H](CCC(=O)O)NC(=O)[C@H](CO)NC(=O)[C@H](CC(C)C)NC(=O)[C@@H](NC(=O)[C@@H](NC(=O)[C@H](CCCCN)NC(=O)[C@H](CCCNC(=N)N)NC(=O)[C@H](CC(C)C)NC(=O)[C@@H](N)Cc1c[nH]cn1)C(C)C)[C@@H](C)CC)C(=O)N[C@@H](CO)C(=O)N[C@@H](Cc1ccccc1)C(=O)N[C@@H](Cc1c[nH]cn1)C(=O)N[C@@H](CC(C)C)C(=O)N[C@H](C(=O)O)C(C)C` [LCMV L946-960] (H-HLRKVILSEISFHLV-OH) was tested. Which IC50 did it give?
**A.** 2.1 nM

**Q.** For `CC(C)C[C@H](NC(=O)CNC(=O)[C@H](CC(C)C)NC(=O)[C@H](CO)NC(=O)[C@@H](NC(=O)[C@H](CC(C)C)NC(=O)[C@H](C)NC(=O)[C@H](CCC(N)=O)NC(=O)[C@@H](NC(=O)[C@@H](NC(=O)[C@H](CO)NC(=O)[C@@H](N)CC(N)=O)C(C)C)C(C)C)[C@@H](C)O)C(=O)N[C@@H](CC(C)C)C(=O)N[C@@H](Cc1ccc(O)cc1)C(=O)N[C@H](C(=O)O)[C@@H](C)O` [MACV NP191-205], which IC50 is on record?
**A.** 0.78 nM

Source: paper PMC2880318 (Immunome Research, 2010)
